In US20130225406A1 (priority 2010, published 2013):

Tested on: Trioza erytreae
Assay type: in vivo

CC1(S(=O)(=O)[O-])CC(=O)c2ccccc2C1=O.[Na+] (centres unmarked) [MSB, menadione sodium bisulphite]
trees that showed leaves with the typical symptoms of the Trioza erytreae attack (Plot A 2000 trees, Plot B 300 trees, Plot C 100 trees, end of the summer of 2010): None
control of the Trioza erytreae attacks (citrus trees, foliar treatment once a month with 80 ppm of MSB in aqueous solution from February 2010, assessed at the end of the summer of 2010): 100%
